Experimental data from patent US6777434B2, “Thiazolidine-4-one derivative, method for preparing the same, and pharmaceutical composition containing the same” (CJ Corp., priority 2002, dated 2004).

Tests used:
COX-1 = biological target: T1, COX-1 (Homo sapiens, UniProt P23219); assay: Assay for the COX-1 inhibitory activity using U-937 (PGE2 inhibition); format: cell-based; conditions: 1 μM test compound; U-937 human lymphoma cells; PGE2 after arachidonic acid; read-out: Cyclooxygenase (COX) Inhibition (%) COX-1 (1 μM)
T1 construct: host or cells: U-937 human lymphoma cells
Method: The collected cells were diluted with HBSS (×1, Hank's balanced salt solution) to a concentration of 1×10^6 cells/ml. 1 ml of the dilute cell solution was placed into each well of 12-well plates. 5 μl of 1 μM solution of a test compound in DMSO and 5 μl of DMSO as a control were added to the wells. The wells were incubated in CO2 incubator at 37° C. for 15 minutes. Separately, 10 mM stock solution of arachidonic acid in ethanol was diluted ten times in ethanol to prepare 1 mM solution of arachidonic acid. Arachidonic acid acts as a substrate. 10 μl of the 1 mM solution of arachidonic acid was added to each well and incubated at CO2 incubator at 37° C. for 30 minutes. The cell solution of each well was placed in a centrifuge test tube and centrifuged at 10,000 rpm at 4° C. for 5 minutes. The concentration of PGE2 in the collected cells and the supernatant was quantified by means of a monoclonal kit (Cayman Chemicals). The percentages of PGE2 inhibition in a group of the test compound-treated cells in relation to a group of the DMSO-treated cells were calculated. Based on the calculated values, the COX-1 inhibitory activities were evaluated.
(§1) The percentages of the COX inhibition were calculated according to the following equation:
(§2) % Inhibition=(concentration of PGE2 in test compound-untreated sample−concentration of PGE2 in test compound-treated sample)/(concentration of PGE2 in test compound-untreated sample)×100

COX-2 = biological target: T2, COX-2 (Mus musculus, UniProt Q05769); assay: Assay for the COX-2 inhibitory activity using RAW 264.7 cell line (PGE2 inhibition); format: cell-based; conditions: for COX-2 inhibitory activity compared with the reference: 10 nM, RAW 264.7, comparison with Valdecoxib; for inhibition (%) ratio of COX-2 to COX-1 compared with the reference Valdecoxib: COX-2 at 10 nM (RAW 264.7) versus COX-1 at 1 μM (U-937); for inhibition at 0.01 µM: RAW264.7, 10 nM test compound, RAW 264.7 cells, interferon and LPS, 18 hours, PGE2 by EIA, read-out: Cyclooxygenase (COX) Inhibition (%) COX-2 (10 nM)
T2 construct: host or cells: RAW 264.7 cells, pre-treated with aspirin, then induced with interferon and LPS
T2 sequence (Q05769 18-604): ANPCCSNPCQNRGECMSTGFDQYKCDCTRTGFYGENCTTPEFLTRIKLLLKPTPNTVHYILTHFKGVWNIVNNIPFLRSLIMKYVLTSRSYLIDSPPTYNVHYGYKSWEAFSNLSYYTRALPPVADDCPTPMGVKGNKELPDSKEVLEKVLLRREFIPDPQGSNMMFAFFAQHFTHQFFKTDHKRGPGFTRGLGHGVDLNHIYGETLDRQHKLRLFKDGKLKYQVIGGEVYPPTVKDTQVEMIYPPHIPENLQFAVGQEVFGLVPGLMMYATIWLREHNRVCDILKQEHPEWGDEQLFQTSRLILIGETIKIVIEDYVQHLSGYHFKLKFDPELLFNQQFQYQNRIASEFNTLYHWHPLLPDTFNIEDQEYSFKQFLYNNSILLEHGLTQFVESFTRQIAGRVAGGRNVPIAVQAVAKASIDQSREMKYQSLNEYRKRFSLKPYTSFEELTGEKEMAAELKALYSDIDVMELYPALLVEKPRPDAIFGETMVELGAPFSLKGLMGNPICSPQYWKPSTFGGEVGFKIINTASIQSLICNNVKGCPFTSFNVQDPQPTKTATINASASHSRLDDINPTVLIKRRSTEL
Method: Each well was treated with 250 μM of aspirin and incubated at 37° C. for 2 hours. After the culture media were replaced with new culture media, the new culture media were treated with a test compound (10 nM) and incubated for 30 minutes. Then, each well was treated with interferon ? (100 units/ml) and lipopolysaccharide (LPS, 100 ng/ml) and incubated for 18 hours. The culture media were transferred to another test tubes. The concentration of PGE2 was quantified by means of the EIA kit (Cayman Chemicals):
as §1, §2

T1 sequence (P23219 24-599): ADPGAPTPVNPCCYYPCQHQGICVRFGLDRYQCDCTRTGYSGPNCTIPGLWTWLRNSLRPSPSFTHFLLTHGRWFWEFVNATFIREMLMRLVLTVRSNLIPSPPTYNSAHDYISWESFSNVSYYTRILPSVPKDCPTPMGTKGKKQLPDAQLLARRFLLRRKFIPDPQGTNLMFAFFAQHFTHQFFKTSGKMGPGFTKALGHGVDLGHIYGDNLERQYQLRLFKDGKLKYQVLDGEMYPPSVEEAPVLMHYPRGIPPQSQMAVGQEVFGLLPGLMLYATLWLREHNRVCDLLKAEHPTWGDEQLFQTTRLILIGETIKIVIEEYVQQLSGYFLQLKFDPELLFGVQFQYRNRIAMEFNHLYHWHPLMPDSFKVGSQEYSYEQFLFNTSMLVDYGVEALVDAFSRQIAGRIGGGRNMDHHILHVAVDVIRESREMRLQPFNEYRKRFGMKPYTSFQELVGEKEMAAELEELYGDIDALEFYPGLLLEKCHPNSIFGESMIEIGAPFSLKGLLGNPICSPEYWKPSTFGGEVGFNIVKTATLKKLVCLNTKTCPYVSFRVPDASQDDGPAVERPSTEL

inhibition at 1 µM (COX-1) [%]	COX-2 inhibitory activity compared with the reference (COX-2)	inhibition at 0.01 µM (COX-2) [%]	SMILES	inhibition (%) ratio of COX-2 to COX-1 compared with the reference Valdecoxib (COX-2)
29.2	significantly higher than the reference	16	Cc1ccc(N2C(=O)CSC2c2ccc(S(C)(=O)=O)cc2)cc1F (stereo not drawn) [Example 2, 3-(3-fluoro-4-methylphenyl)-2-(4-methanesulfonylphenyl)thiazolidine-4-one]	significantly higher than that in the reference
26	significantly higher than the reference	16	CS(=O)(=O)c1ccc(C2SCC(=O)N2c2ccccc2)cc1 (stereo not drawn) [Example 4, 2-(4-methanesulfonylphenyl)-3-phenylthiazolidine-4-one]	significantly higher than that in the reference
10.1	–	6.54	CS(=O)(=O)c1ccc(C2SCC(=O)N2c2ccc(C#N)cc2)cc1 (stereo not drawn) [Example 5, 3-(4-cyanophenyl)-2-(4-methanesulfonylphenyl)thiazolidine-4-one]	significantly higher than that in the reference
38	significantly higher than the reference	12.1	CS(=O)(=O)c1ccc(C2SCC(=O)N2c2cc(F)cc(F)c2)cc1 (stereo not drawn) [Example 6, 3-(3,5-difluorophenyl)-2-(4-methanesulfonylphenyl)thiazolidine-4-one]	significantly higher than that in the reference
